In order of falling logP:
1. CCCCCCCCCCCCCc1ccccc1O  8.61
2. CCCCCCCCCCCCCCCc1ccc(O)cc1O  8.29
3. CCCCCCCCCCCCc1ccc(O)cc1  7.91
4. CCCCCCCCCCCCCc1cccc(O)c1O  7.75
5. CCCCCCCCCCCc1ccc(O)cc1  7.18
6. CCCCCCCCCCCc1ccccc1O  7.17
7. CCCCCCCCCCCc1cccc(O)c1  6.98
8. CCCCCCCCCCCc1ccc(O)c(O)c1  6.97
9. CCCCCCCCCCCCCc1ccc(O)cc1O  6.84
10. CCCCCCCCCCCc1cccc(O)c1O  6.3
11. CCCCCCCCCc1ccc(O)cc1  5.76
12. CCCCCCCCCc1ccccc1O  5.76
13. CCCCCCCCCc1cccc(O)c1  5.61
14. CCCCCc1ccc(O)c(O)c1  3.11

— the OPERA property sets (Mansouri et al. 2018)
